Results taken from the supplement of paper PMC13380429.

Assays:
Details in all cases: 72 h
Caco-2 [1] = assay: cell viability relative to DMSO; higher = less toxic
HepG2 [2] = assay: as above
U2OS [3] = assay: as above
Vero E6 [4] = assay: as above
Caco-2 [5] = assay: relative viability EC50 (midpoint between 100% and the lowest measured viability); higher = less toxic
HepG2 [6] = assay: as above
U2OS [7] = assay: as above
Vero E6 [8] = assay: as above
Caco-2 [9] = assay: drug sensitivity score (DSS) for viability; higher = more toxic; extreme values may be limits of the assay
HepG2 [10] = assay: as above
U2OS [11] = assay: as above
Vero E6 [12] = assay: as above
Calu-3 [13] = assay: cell viability relative to DMSO; higher = less toxic
Calu-3 [14] = assay: relative viability EC50 (midpoint between 100% and the lowest measured viability); higher = less toxic
Calu-3 [15] = assay: drug sensitivity score (DSS) for viability; higher = more toxic; extreme values may be limits of the assay

SMILES: COc1ccc(S(=O)(=O)N2CCC[C@H]2C(=O)Nc2cc(C)cc(C)c2)cc1
- cell viability (Caco-2 [1]; 1 nM): 91%
- cell viability (Caco-2 [1]; 10 nM): 93.1%
- cell viability (Caco-2 [1]; 100 nM): 98.1%
- cell viability (Caco-2 [1]; 1000 nM): 102%
- cell viability (Caco-2 [1]; 10000 nM): 90%
- cell viability (HepG2 [2]; 1 nM): 101%
- cell viability (HepG2 [2]; 10 nM): 99%
- cell viability (HepG2 [2]; 100 nM): 113%
- cell viability (HepG2 [2]; 1000 nM): 104%
- cell viability (HepG2 [2]; 10000 nM): 104%
- cell viability (U2OS [3]; 1 nM): 103%
- cell viability (U2OS [3]; 10 nM): 100%
- cell viability (U2OS [3]; 100 nM): 98.1%
- cell viability (U2OS [3]; 1000 nM): 102%
- cell viability (U2OS [3]; 10000 nM): 99.2%
- cell viability (Vero E6 [4]; 1 nM): 102%
- cell viability (Vero E6 [4]; 10 nM): 102%
- cell viability (Vero E6 [4]; 100 nM): 107%
- cell viability (Vero E6 [4]; 1000 nM): 98.4%
- cell viability (Vero E6 [4]; 10000 nM): 99.7%
- relative viability EC50 (Caco-2 [5]): > 10 µM
- relative viability EC50 (HepG2 [6]): > 10 µM
- relative viability EC50 (U2OS [7]): > 10 µM
- relative viability EC50 (Vero E6 [8]): > 10 µM
- drug sensitivity score (Caco-2 [9]): 0
- drug sensitivity score (HepG2 [10]): 0
- drug sensitivity score (U2OS [11]): 0
- drug sensitivity score (Vero E6 [12]): 0

SMILES: CSc1nc(NC2CCCC2)c([N+](=O)[O-])c(NC2CCCC2)n1
- cell viability (Caco-2 [1]; 1 nM): 99%
- cell viability (Caco-2 [1]; 10 nM): 97%
- cell viability (Caco-2 [1]; 100 nM): 102%
- cell viability (Caco-2 [1]; 1000 nM): 93.7%
- cell viability (Caco-2 [1]; 10000 nM): 95.7%
- cell viability (Calu-3 [13]; 1 nM): 94.6%
- cell viability (Calu-3 [13]; 10 nM): 94.2%
- cell viability (Calu-3 [13]; 100 nM): 106%
- cell viability (Calu-3 [13]; 1000 nM): 96.9%
- cell viability (Calu-3 [13]; 10000 nM): 90.1%
- cell viability (U2OS [3]; 1 nM): 102%
- cell viability (U2OS [3]; 10 nM): 103%
- cell viability (U2OS [3]; 100 nM): 98.9%
- cell viability (U2OS [3]; 1000 nM): 106%
- cell viability (U2OS [3]; 10000 nM): 97.2%
- cell viability (Vero E6 [4]; 1 nM): 110%
- cell viability (Vero E6 [4]; 10 nM): 98.3%
- cell viability (Vero E6 [4]; 100 nM): 107%
- cell viability (Vero E6 [4]; 1000 nM): 96.4%
- cell viability (Vero E6 [4]; 10000 nM): 97%
- relative viability EC50 (Caco-2 [5]): > 10 µM
- relative viability EC50 (Calu-3 [14]): > 10 µM
- relative viability EC50 (U2OS [7]): > 10 µM
- relative viability EC50 (Vero E6 [8]): > 10 µM
- drug sensitivity score (Caco-2 [9]): 0
- drug sensitivity score (Calu-3 [15]): 0
- drug sensitivity score (U2OS [11]): 0
- drug sensitivity score (Vero E6 [12]): 0

SMILES: Cc1nc2c(OCc3ccccc3)cccn2c1CC#N
- cell viability (Caco-2 [1]; 1 nM): 97.9%
- cell viability (Caco-2 [1]; 10 nM): 91.1%
- cell viability (Caco-2 [1]; 100 nM): 107%
- cell viability (Caco-2 [1]; 1000 nM): 100%
- cell viability (Caco-2 [1]; 10000 nM): 93.6%
- cell viability (HepG2 [2]; 1 nM): 106%
- cell viability (HepG2 [2]; 10 nM): 107%
- cell viability (HepG2 [2]; 100 nM): 95.9%
- cell viability (HepG2 [2]; 1000 nM): 106%
- cell viability (HepG2 [2]; 10000 nM): 97.5%
- cell viability (U2OS [3]; 1 nM): 98%
- cell viability (U2OS [3]; 10 nM): 102%
- cell viability (U2OS [3]; 100 nM): 100%
- cell viability (U2OS [3]; 1000 nM): 95.3%
- cell viability (U2OS [3]; 10000 nM): 98.2%
- cell viability (Vero E6 [4]; 1 nM): 92.4%
- cell viability (Vero E6 [4]; 10 nM): 93.3%
- cell viability (Vero E6 [4]; 100 nM): 95.8%
- cell viability (Vero E6 [4]; 1000 nM): 95.1%
- cell viability (Vero E6 [4]; 10000 nM): 103%
- relative viability EC50 (Caco-2 [5]): > 10 µM
- relative viability EC50 (HepG2 [6]): > 10 µM
- relative viability EC50 (U2OS [7]): > 10 µM
- relative viability EC50 (Vero E6 [8]): > 10 µM
- drug sensitivity score (Caco-2 [9]): 0
- drug sensitivity score (HepG2 [10]): 0
- drug sensitivity score (U2OS [11]): 0
- drug sensitivity score (Vero E6 [12]): 0

SMILES: OCc1ccc(CO)o1 [2,5-furandimethanol]
- cell viability (Caco-2 [1]; 1 nM): 89.2%
- cell viability (Caco-2 [1]; 10 nM): 100%
- cell viability (Caco-2 [1]; 100 nM): 84.4%
- cell viability (Caco-2 [1]; 1000 nM): 95.1%
- cell viability (Caco-2 [1]; 10000 nM): 103%
- cell viability (HepG2 [2]; 1 nM): 98.6%
- cell viability (HepG2 [2]; 10 nM): 97.3%
- cell viability (HepG2 [2]; 100 nM): 108%
- cell viability (HepG2 [2]; 1000 nM): 106%
- cell viability (HepG2 [2]; 10000 nM): 100%
- cell viability (U2OS [3]; 1 nM): 95.4%
- cell viability (U2OS [3]; 10 nM): 104%
- cell viability (U2OS [3]; 100 nM): 96.6%
- cell viability (U2OS [3]; 1000 nM): 98.5%
- cell viability (U2OS [3]; 10000 nM): 99%
- cell viability (Vero E6 [4]; 1 nM): 97.1%
- cell viability (Vero E6 [4]; 10 nM): 94.3%
- cell viability (Vero E6 [4]; 100 nM): 88.2%
- cell viability (Vero E6 [4]; 1000 nM): 94.4%
- cell viability (Vero E6 [4]; 10000 nM): 107%
- relative viability EC50 (Caco-2 [5]): > 10 µM
- relative viability EC50 (HepG2 [6]): > 10 µM
- relative viability EC50 (U2OS [7]): > 10 µM
- relative viability EC50 (Vero E6 [8]): > 10 µM
- drug sensitivity score (Caco-2 [9]): 0
- drug sensitivity score (HepG2 [10]): 0
- drug sensitivity score (U2OS [11]): 0
- drug sensitivity score (Vero E6 [12]): 0

SMILES: CO/N=C(\C(=O)N[C@@H]1C(=O)N2C(C(=O)O)=C(COC(N)=O)CS[C@H]12)c1ccco1 [CEFUROXIME SODIUM]
- cell viability (Caco-2 [1]; 1 nM): 106%
- cell viability (Caco-2 [1]; 10 nM): 90.6%
- cell viability (Caco-2 [1]; 100 nM): 98.6%
- cell viability (Caco-2 [1]; 1000 nM): 107%
- cell viability (Caco-2 [1]; 10000 nM): 99.4%
- cell viability (HepG2 [2]; 1 nM): 97.7%
- cell viability (HepG2 [2]; 10 nM): 109%
- cell viability (HepG2 [2]; 100 nM): 95.4%
- cell viability (HepG2 [2]; 1000 nM): 97.8%
- cell viability (HepG2 [2]; 10000 nM): 103%
- cell viability (U2OS [3]; 1 nM): 97.3%
- cell viability (U2OS [3]; 10 nM): 95%
- cell viability (U2OS [3]; 100 nM): 96.8%
- cell viability (U2OS [3]; 1000 nM): 98.7%
- cell viability (U2OS [3]; 10000 nM): 103%
- cell viability (Vero E6 [4]; 1 nM): 101%
- cell viability (Vero E6 [4]; 10 nM): 95.6%
- cell viability (Vero E6 [4]; 100 nM): 97.6%
- cell viability (Vero E6 [4]; 1000 nM): 95.1%
- cell viability (Vero E6 [4]; 10000 nM): 110%
- relative viability EC50 (Caco-2 [5]): > 10 µM
- relative viability EC50 (HepG2 [6]): > 10 µM
- relative viability EC50 (U2OS [7]): > 10 µM
- relative viability EC50 (Vero E6 [8]): > 10 µM
- drug sensitivity score (Caco-2 [9]): 0
- drug sensitivity score (HepG2 [10]): 0
- drug sensitivity score (U2OS [11]): 0
- drug sensitivity score (Vero E6 [12]): 0

SMILES: O=C(NC(NC(=S)Nc1ccc(F)c([N+](=O)[O-])c1)C(Cl)(Cl)Cl)C(c1ccccc1)c1ccccc1 (centres undefined) [CGK-733]
- cell viability (Caco-2 [1]; 1 nM): 99.2%
- cell viability (Caco-2 [1]; 10 nM): 106%
- cell viability (Caco-2 [1]; 100 nM): 93.9%
- cell viability (Caco-2 [1]; 1000 nM): 90.3%
- cell viability (Caco-2 [1]; 10000 nM): 10.7%
- cell viability (Calu-3 [13]; 1 nM): 97.8%
- cell viability (Calu-3 [13]; 10 nM): 103%
- cell viability (Calu-3 [13]; 100 nM): 96.6%
- cell viability (Calu-3 [13]; 1000 nM): 104%
- cell viability (Calu-3 [13]; 10000 nM): 52.8%
- cell viability (HepG2 [2]; 1 nM): 95.8%
- cell viability (HepG2 [2]; 10 nM): 94.2%
- cell viability (HepG2 [2]; 100 nM): 104%
- cell viability (HepG2 [2]; 1000 nM): 96.7%
- cell viability (HepG2 [2]; 10000 nM): 7.9%
- cell viability (U2OS [3]; 1 nM): 94.4%
- cell viability (U2OS [3]; 10 nM): 103%
- cell viability (U2OS [3]; 100 nM): 96.4%
- cell viability (U2OS [3]; 1000 nM): 95.9%
- cell viability (U2OS [3]; 10000 nM): 27.4%
- cell viability (Vero E6 [4]; 1 nM): 98.8%
- cell viability (Vero E6 [4]; 10 nM): 100%
- cell viability (Vero E6 [4]; 100 nM): 101%
- cell viability (Vero E6 [4]; 1000 nM): 97.8%
- cell viability (Vero E6 [4]; 10000 nM): 20%
- relative viability EC50 (Caco-2 [5]): 2.26 µM
- relative viability EC50 (HepG2 [6]): 2.91 µM
- relative viability EC50 (U2OS [7]): 2.72 µM
- relative viability EC50 (Vero E6 [8]): 2.96 µM
- drug sensitivity score (Caco-2 [9]): 6.6
- drug sensitivity score (Calu-3 [15]): 2.2
- drug sensitivity score (HepG2 [10]): 5.6
- drug sensitivity score (U2OS [11]): 4.6
- drug sensitivity score (Vero E6 [12]): 4.7
